Results: the CheMixHub ionic liquid set
± gives the uncertainty stated by the source.

Test: xn = mol fraction of the nth substance listed

CC[NH3+].O=[N+]([O-])[O-] + CC#N
100 kPa
Conditions | electrical conductivity [S/m] | viscosity [mPa·s]
278 K, x1 = 0.3 | 2.52 ± 0.25 | –
288 K, x1 = 0.7 | 2.71 ± 0.27 | –
288.08 K, x1 = 0.7 | – | 20.78 ± 0.67
288.08 K, x1 = 0.98 | – | 43.7 ± 1.4
288.09 K, x1 = 0.3 | – | 3.15 ± 0.11
293.09 K, x1 = 0.3 | – | 2.819 ± 0.096
298 K, x1 = 0.7 | 3.71 ± 0.37 | 14.73 ± 0.49
298.1 K, x1 = 0.98 | – | 33.2 ± 1.1
298.14 K, x1 = 0.2 | – | 1.406 ± 0.053
308 K, x1 = 0.2 | 5.19 ± 0.52 | –
308 K, x1 = 0.7 | 4.94 ± 0.49 | –
308.09 K, x1 = 0.8 | – | 14.76 ± 0.48
308.11 K, x1 = 0.9 | – | 20.7 ± 0.68
308.12 K, x1 = 0.6 | – | 7.76 ± 0.25
308.14 K, x1 = 0.7 | – | 10.53 ± 0.34
308.15 K, x1 = 0.3 | – | 2.292 ± 0.079

C[N+](C)(C)CCC[N+]1(C)CCCCC1.N#C[N-]C#N.N#C[N-]C#N + CC#N
100 kPa
Conditions | viscosity [mPa·s]
288.15 K, x1 = 0.7996 | 2305 ± 270
293.15 K, x1 = 0.0999 | 3.69 ± 0.37
293.15 K, x1 = 1 | 4503 ± 560
298.15 K, x1 = 0.3001 | 37.7 ± 3.8
298.15 K, x1 = 0.5002 | 181 ± 19
298.15 K, x1 = 1 | 2819 ± 340
303.15 K, x1 = 0.3998 | 69.5 ± 7
308.15 K, x1 = 0.0999 | 2.98 ± 0.3
308.15 K, x1 = 0.3001 | 26.5 ± 2.7
308.15 K, x1 = 0.3998 | 56.5 ± 5.7
308.15 K, x1 = 0.5002 | 109 ± 11
313.15 K, x1 = 0.2001 | 9.24 ± 0.93
313.15 K, x1 = 0.8998 | 545 ± 59
318.15 K, x1 = 0.0999 | 2.68 ± 0.27
318.15 K, x1 = 0.2001 | 8.26 ± 0.83
318.15 K, x1 = 0.5002 | 70.4 ± 7.1
318.15 K, x1 = 0.7001 | 163 ± 17
318.15 K, x1 = 1 | 618 ± 67
323.15 K, x1 = 0.3001 | 17.3 ± 1.7
323.15 K, x1 = 0.6 | 91.8 ± 9.3
323.15 K, x1 = 0.7001 | 130 ± 13
328.15 K, x1 = 0.2001 | 6.82 ± 0.69
328.15 K, x1 = 0.5002 | 48.7 ± 4.9
328.15 K, x1 = 0.6 | 74.3 ± 7.5
333.15 K, x1 = 0.5002 | 41.6 ± 4.2
333.15 K, x1 = 0.8998 | 183 ± 19

CCCC[P+](CCCC)(CCCC)CCCC.F[B-](F)(F)F + CC#N + C1CCOC1
298.15 K, 100 kPa
Conditions | viscosity [mPa·s]
x1 = 0.0005747, x2 = 0.84 | 0.377 ± 0.007
x1 = 0.0006326, x2 = 0.6368 | 0.408 ± 0.007
x1 = 0.000709, x2 = 0.369 | 0.437 ± 0.008
x1 = 0.0008641, x2 = 0.8398 | 0.381 ± 0.007
x1 = 0.0009513, x2 = 0.6366 | 0.412 ± 0.007
x1 = 0.001066, x2 = 0.3689 | 0.442 ± 0.008
x1 = 0.001153, x2 = 0.8395 | 0.384 ± 0.007
x1 = 0.00127, x2 = 0.6364 | 0.416 ± 0.007
x1 = 0.001429, x2 = 0.3688 | 0.447 ± 0.008
x1 = 0.001442, x2 = 0.8393 | 0.388 ± 0.007
x1 = 0.001588, x2 = 0.6362 | 0.42 ± 0.008
x1 = 0.001736, x2 = 0.839 | 0.392 ± 0.007
x1 = 0.001786, x2 = 0.3686 | 0.451 ± 0.008
x1 = 0.001911, x2 = 0.636 | 0.424 ± 0.008
x1 = 0.002029, x2 = 0.8388 | 0.396 ± 0.007
x1 = 0.002142, x2 = 0.3685 | 0.456 ± 0.008
x1 = 0.002229, x2 = 0.6358 | 0.429 ± 0.008
x1 = 0.002504, x2 = 0.3684 | 0.461 ± 0.008

CCCC[P+](CCCC)(CCCC)CCCC.F[B-](F)(F)F + CC#N + C1COCO1
298.15 K, 100 kPa
Conditions | viscosity [mPa·s]
x1 = 0.0005495, x2 = 0.8436 | 0.41 ± 0.007
x1 = 0.0005755, x2 = 0.6431 | 0.471 ± 0.008
x1 = 0.0006287, x2 = 0.3754 | 0.532 ± 0.008
x1 = 0.0008217, x2 = 0.8434 | 0.414 ± 0.007
x1 = 0.0008656, x2 = 0.6429 | 0.476 ± 0.008
x1 = 0.0009366, x2 = 0.3753 | 0.537 ± 0.008
x1 = 0.001098, x2 = 0.8432 | 0.418 ± 0.007
x1 = 0.001156, x2 = 0.6427 | 0.481 ± 0.008
x1 = 0.00125, x2 = 0.3751 | 0.543 ± 0.008
x1 = 0.001375, x2 = 0.8429 | 0.422 ± 0.008
x1 = 0.001445, x2 = 0.6425 | 0.486 ± 0.008
x1 = 0.001564, x2 = 0.375 | 0.548 ± 0.008
x1 = 0.001651, x2 = 0.8427 | 0.426 ± 0.008
x1 = 0.00174, x2 = 0.6423 | 0.491 ± 0.008
x1 = 0.001878, x2 = 0.3749 | 0.554 ± 0.008
x1 = 0.001927, x2 = 0.8425 | 0.43 ± 0.008
x1 = 0.00203, x2 = 0.6421 | 0.496 ± 0.008
x1 = 0.002191, x2 = 0.3748 | 0.56 ± 0.008

C[P+](c1ccccc1)(c1ccccc1)c1ccccc1.[Br-] + CC(=O)O
Conditions | viscosity [mPa·s]
298.2 K, 101 kPa, x1 = 0.2 | 74.5 ± 2.5
